Reference: US20190359939A1, “NEW USE” (DIAMYD MEDICAL AB, priority 2015, published 2019)
Entries after “also recorded” stand apart in the source; their conditions may differ.

Columns and labels:
[1] = test system: DCs from murine bone marrow (CD11c+ monocytes); assay: Dendritic cell surface receptor expression (CD40, CD80, CD86, MHC Class II) by flow cytometry after cultivation with additives; format: cell-based, NOD mouse
Source text: FIG. 1: Dendritic cell (CD11c+ monocytes) surface receptor expression after cultivation with various additives. Expression as indicated by the MFI of CD11+ monocyte cells stained with fluorescent antibodies towards CD40, CD80, CD86 and MHC Class II. A: comparing cells untreated (iDCs), matured with MPLA (mDCs), and cells treated with GABA, GABA and rhGAD65, and GABA and rhGAD65 matured with MPLA. B: comparing cells untreated (iDCs), matured with MPLA (mDCs), and cells treated with GABA, GABA and alhydrogel adsobed rhGAD65, and GABA and alhydrogel adsorbed rhGAD65 matured with MPLA. C: comparing cells untreated (iDCs), matured with MPLA (mDCs), and cells treated with GABA and rhGAD65 matured with MPLA, GABA and alhydrogel adsorbed rhGAD65 matured with MPLA, and cells treated with Dex and VD3 and matured with MPLA.
FIG. 1 (A, B and C) show the surface expression pattern of CD80, CD86, CD40 and MCH Class II proteins on murine DCs treated according to different protocols.
Mouse bone marrow-derived dendritic cells (BMDCs) were generated from bone marrow cells (femura) of 8-week-old NOD mouse females in complete RPMI 1640 medium (Lonza, Basel Switzerland) in the presence of GM-CSF (20 ng/ml) and IL-4 (4.5 ng/ml, PeproTech) for 6 days. Fresh medium was added on day 3 and comparator tDCs were induced by adding dexamethasone (1 μM) and vitamin D3 (0.5 ng/ml) on day 6, while mDCs were generated without tolerogenic factors, and iDCs were untreated for the entire cultivation period. Similarly for GABA testing, GABA was added on day 6 in at a concentration of 100 μM. Exposure to antigen was achieved by adding GAD65 (either pure GAD65 protein or alum adsorbed GAD65) to the cultivation mixture on day 6 along with tolerizing agents at a concentration of 5 μg/ml. […] Cells were harvested on day 8.
Mouse DCs were characterized by flowcytometry using following mAbs purchased from eBioscience; anti-CD11c-APC (clone N418), anti-CD40-PerCP-eFluor710 (clone 1C10), anti-CD80-FITC (clone 16-10A1), anti-CD86-PE (clone GL1), and anti-MHC II (I-A/I-E) (clone MS/114.15.2). Cells were stained with fluorochrome-conjugated antibodies against surface molecules and data were acquired by LSR II flow cytometers (BD Biosciences) and analyzed using FlowJo software (Tree Star).

[2] = test system: CD11c+ DCs (IL-12 production); assay: Intracellular IL-12 expression of treated dendritic cells by FACS; format: cell-based, NOD mouse; conditions: with alhydrogel adsorbed rhGAD65, activated with MPLA, FIG. 2B
Source text: FIG. 2: IL-12 production of treated dendritic cells. A: FACS plots showing the intracellular IL-12 expression of CD11c+ monocytes as percent IL-12+ cells of parent population; from left to right, untreated (iDCs), matured by MPLA (mDCs), tolerogenic by Dex and VD3 and tolerogenic by GABA. B: Column diagram of percent of parent numbers of the same groups.
In FIG. 2A, FACS plots of the intracellular expression of IL-12 of untreated CD11c+ DCs (iDCs), proinflammatory matured DCs (mDCs), DCs treated with Dex, VD3 and alhydrogel adsorbed rhGAD65 activated by MPLA, and DCs treated with GABA and alhydrogel adsorbed rhGAD65 activated by MPLA are shown. IL-12 is a proinflammatory cytokine, and low production is indicative of tolerogenic DCs. The IL-12+ cells are shown in the upper left quadrant of the plots.
Tolerogenically treated cells on the other hand generally have very low expression of IL-12. Both cells treated with Dex and VD3 and those treated with GABA, even though they have been activated with MPLA, show very low numbers of IL-12+ cells.
Mouse bone marrow-derived dendritic cells (BMDCs) were generated from bone marrow cells (femura) of 8-week-old NOD mouse females in complete RPMI 1640 medium (Lonza, Basel Switzerland) in the presence of GM-CSF (20 ng/ml) and IL-4 (4.5 ng/ml, PeproTech) for 6 days. […]

[3] = test system: dendritic cells obtained from mouse bone marrow; conditions: compared to LPS or mouse serum albumin treatment
Procedure: Dendritic cells obtained from mouse bone marrow are used. In order to secure a large amount of the number of the dendritic cells, Inaba's culture method (Inaba et al., J. Exp. Med. 175:1157, 1992), which is a representative method of culturing a dendritic cell, is modified and applied to the dendritic cells. […] A tibia and a femur of a mouse aged 6 to 11 weeks are extracted, and a RPMI1640 medium is added to bone marrow of the tibia and the femur to obtain bone marrow cells therefrom. Then, hypotonic ammonium chloride-potassium (ACK) lysing buffer is used for the lysis of red blood cells. The bone marrow cells are cultured in an RPMI1640 medium containing about 10 to 20 ng/ml recombinant mouse GMCSF, about 5 to 10 ng/ml recombinant mouse IL4, 5 to 10% heat inactivated fetal bovine serum, L-glutamine, 25 mM of HEPES, penicillin, and streptomycin under conditions of 5% CO2 and a temperature of 37° C., thereby inducing differentiation into dendritic cells. The medium is replaced every 2 days with a medium containing the recombinant cytokines. After 2 and 4 days of the culture, granulocytes and lymphocytes that are floating on the culture dish are removed. After 6 days of the culture, dendritic cells that are differentiated from precursor cells attached on the bottom of the culture dish and that have characteristic protrusions in suspension are used in the experiments. […]

NCCCC(=O)O [GABA, gamma-aminobutyric acid]
surface protein expression profile (CD80, CD86, CD40, MHC Class II) ([1]; 100 μM GABA alone, FIG. 1A): more similar to iDCs and indicative of tDCs
tolerogenic expression pattern compared to Dexamethasone, Vitamin D and MPLA protocol ([1]; 100 μM GABA and stabilization with MPLA, FIG. 1C): comparable or better
surface molecule expression ([1]; GABA plus alhydrogel adsorbed rhGAD65, then MPLA, FIG. 1B): keep a low surface molecule expression
surface protein expression profile (CD80, CD86, CD40, MHC Class II) ([1]; GABA plus antigen GAD65 (rhGAD65), no MPLA): remains the same; also recorded: remains indicative of tDCs
surface protein expression profile (CD80, CD86, CD40, MHC Class II) ([1]; GABA plus rhGAD65, then MPLA): increases slightly but is still much lower than mDCs; also recorded: still remains almost the same
CD80 expression compared to Dex and VD3 treated cells ([1]; activated by MPLA, FIG. 1C): even lower
numbers of IL-12+ cells (percentage of CD11c+ monocytes that are IL-12 positive) [2]: very low
amount of maturation markers on the surface of the dendritic cells (CD40, CD80, CD86, MHC class II) [3]: decreased
